Measurements published in patent US6613757B1, “COMBINATION OF PROSTACYCLIN WITH AN ESTROGEN OR PROGESTIN FOR THE PREVENTION AND TREATMENT OF ATHEROSCLEROTIC VASCULAR DISEASE INCLUDING PREECLAMPSIA AND FOR THE TREATMENT OF HYPERTENSION, AND FOR HORMONE REPLACEMENT THERAPY” (Board of Regents, The University of Texas System, priority 1994, dated 2003).
“Also recorded” adds a separate entry of the source.

Experiments:
[1] = test system: preeclamptic rats (L-NAME); assay: Blood pressure in L-NAME-induced preeclampsia model, pregnant and postpartum rats; assay type: in vivo, rat; details: for post-partum increase in blood pressure: R 5020 5 mg/animal/day; for blood pressure in the postpartum period: preeclamptic rats, L-NAME 25 mg/animal/day s.c. infusion plus cicaprost
Experimental: These symptoms are related to the decrease in vascular resistance and placental perfusion. […] Preeclampsia was induced with an nitric oxide inhibitor L-NAME (25 mg/animal/day, s.c. infusion).

[2] = test system: pregnant guinea pigs; assay: Inhibition of nitric oxide synthesis during pregnancy in guinea pigs; assay type: in vivo, guinea pig; details: unreported studies
Excerpt: There is also evidence that prostacyclin production is decreased in preeclampsia. In a normal pregnancy there is an approximately 5-10-fold increase in prostacyclin production compared to the non-pregnant state (Goodman 1982, Walsh 1985, Fitzgerald 1,987). In contrast, there is a decreased production of prostacyclin in maternal, placental and umbilical cord vessels and in placental cotyledons (Remuzzi 1980, […] 1984, Walsh 1985) in preeclampsia. An imbalance in the ratio of thromboxane A2 to prostacyclin in preeclampsia has been proposed as a major pathological mechanism in preeclampsia (Walsh 1988, Fitzgerald 1987, Friedman 1988). Other experimental studies (unreported) in pregnant rats and guinea pigs indicate that nitric oxide deficiency is the primary event in preeclampsia.

[3] = test system: L-NAME-treated male rats; assay: L-NAME-induced hypertension in male rats; assay type: in vivo, rat
Experimental: (§1) FIG. 2 provides further evidence that progesterone can induce mechanisms which compensate the L-NAME-produced hypertension. This study was performed in male rats, showing pregnancy is not essential for this effect.

[4] = test system: cholesterol-fed rabbits; details: cited from earlier work
[5] = in vivo; cited from earlier work
[6] = test system: preeclamptic rats (L-NAME); assay: Fetal weight and fetal mortality in L-NAME-treated pregnant rats; assay type: in vivo, rat; details: iloprost plus L-NAME vs L-NAME-treated group
Excerpt: The unexpected results of the studies described below indicate that the response of blood vessels to prostacyclins and subsequent blood pressure lowering effect is controlled by progesterone. […] These symptoms are related to the decrease in vascular resistance and placental perfusion. […] Thus, the condition of pregnancy and the progestin treatment highly increase the responsiveness of blood vessels to exogenous prostacyclin. The increased response of blood vessels results in the lowering of the effective dose of prostacyclin analogs and subsequently in the reduction of side effects.
as §1

[7] = test system: microvascular arteriolar endothelium; details: cited from earlier work
[8] = intravenous use; cited from earlier work
[9] = test system: placental blood vessels; details: in vitro; cited from earlier work
[10] = test system: sheep; details: infusion; cited from earlier work
[11] = test system: humans; details: infusion; cited from earlier work
[12] = test system: women with severe preeclampsia; details: cited from earlier work
[13] = test system: cases of severe early-onset fetal growth retardation; details: 2 cases, intravenous, 4 ng/kg/min; cited from earlier work

With COC(=O)[C@@H](N)CCCNC(=N)N[N+](=O)[O-] [L-NAME] the “signs and symptoms of preeclampsia (hypertension, proteinuria, fetal growth retardation)” value ([1]; pregnant rats) was “caused the classical symptoms hypertension, proteinuria and fetal growth retardation; also recorded: produces signs and symptoms of preeclampsia” and the “classical symptoms hypertension, proteinuria and fetal growth retardation” value [2] was “caused the classical symptoms hypertension, proteinuria and fetal growth retardation”.

For CC(=O)[C@H]1CC[C@H]2[C@@H]3CCC4=CC(=O)CC[C@]4(C)[C@H]3CC[C@]12C [progesterone], the blood pressure ([3]; L-NAME-treated male rats) was “partially lowers blood pressure”.

For CCC#CC[C@H](C)[C@H](O)C#C[C@@H]1[C@H]2C/C(=C/COCC(=O)O)C[C@H]2C[C@H]1O [cicaprost], the “blood pressure during pregnancy (prepartum)” value ([1]; cicaprost plus L-NAME, progesterone levels high, FIG. 1) is given as “greater in late pregnancy; also recorded: a fall in blood pressure”, the blood pressure postpartum ([1]; cicaprost plus L-NAME, progesterone levels low, FIG. 1) is given as “rapid increase in blood pressure; also recorded: an increase” and the “aortic atheromatous plaque formation” value ([4]; oral, cholesterol-fed rabbits) is given as “reduced aortic atheromatous plaque formation”. For the same compound, the “hypercholesterolemia-induced impairment of endothelium-dependent relaxation” value ([4]; oral, cholesterol-fed rabbits) was “partially prevented hypercholesterolemia-induced impairment of endothelium-dependent relaxation”, the “hypercholesterolemia-induced impairment of coronary vasodilatation” value ([4]; oral, rabbits) was “beneficial effect on the hypercholesterolemia-induced impairment of coronary vasodilatation” and the “hypercholesterolemia-induced platelet and neutrophil hyperactivity” value ([4]; rabbits) was “reduced hypercholesterolemia-induced platelet and neutrophil hyperactivity”. The bioavailability [5] was “high bioavailability” and the duration of action [5] was “prolonged duration of action”.

In the case of CCC(=O)[C@@]1(C)CC[C@H]2[C@@H]3CCC4=CC(=O)CCC4=C3CC[C@@]21C [R 5020, promegestone], the “post-partum increase in blood pressure” value ([1]; iloprost plus L-NAME, FIG. 4) is reported as “dramatically decrease the post-partum increase in blood pressure”, the “post-partum increase in blood pressure” value ([1]; iloprost plus L-NAME, FIG. 4, listed as R5020) is reported as “restores the efficacy of iloprost/cicaprost to lower blood pressure” and the “blood pressure in the postpartum period” value ([1]; FIG. 1) is reported as “lowers blood pressure; also recorded: restores the postpartum decrease in the efficacy of cicaprost to lower blood pressure”. The “blood pressure in the postpartum period” value ([1]; FIG. 1, listed as R5020) was “restores the efficacy of iloprost/cicaprost to lower blood pressure” and the L-NAME-induced hypertension ([3]; male rats, 0.5 mg/animal/day s.c., FIG. 2) was “reduces the L-NAME-induced hypertension”.

With CC#CCC(C)[C@H](O)/C=C/[C@@H]1[C@H]2C/C(=C/CCCC(=O)O)C[C@H]2C[C@H]1O (stereo partly shown) [iloprost] the “L-NAME-induced hypertension during pregnancy” value ([1]; iloprost plus L-NAME, progesterone levels high, FIG. 4) was “greater in late pregnancy; also recorded: fully reverses the L-NAME-induced hypertension”, the L-NAME-induced fetal mortality ([6]; FIG. 5 lower panel) was “reduces the L-NAME-induced fetal mortality; also recorded: fetal mortality decreased” and the “L-NAME-induced fetal growth retardation (fetal weight)” value ([6]; FIG. 5 upper panel) was “partially reverses the L-NAME-induced fetal growth retardation; also recorded: fetal weight increased”. The “damage of microvascular arteriolar endothelium by cyclosporin” value [7] was “protect microvascular arteriolar endothelium from damage by cyclosporin” and the systemic blood pressure [8] was “marked fall in systemic blood pressure”.

For CCCCC[C@H](O)/C=C/[C@@H]1[C@H]2C/C(=C/CCCC(=O)O)O[C@H]2C[C@H]1O [prostacyclin], the “relaxation of placental blood vessels” value [9] is listed as “consistently relaxes placental blood vessels”, the placental perfusion [10] is listed as “did not result in the increase in placental perfusion; also recorded: a decrease of placental perfusion” and the placental perfusion [11] is listed as “did not result in the increase in placental perfusion”. The babies survived ([12]; 7 women, 4-8 ng/kg/min i.v.) was 4/7, the “fetal effects during treatment” value ([12]; 7 women, 4-8 ng/kg/min i.v.) was “Fetal bradycardia was observed; also recorded: two fetuses died during prostacyclin infusion” and the “blood pressure during prostacyclin infusion” value ([12]; 7 women, 4-8 ng/kg/min, 5 h to 11 days) was “rapid decrease in blood pressure”. The uteroplacental blood flow ([12]; steal phenomenon) was “decreased uteroplacental blood flow”, the “outcome of attempt to promote fetal growth” value [13] was “intrauterine death in each case” and the duration of action [5] was “short duration of action”. The systemic blood pressure [8] was “marked fall in systemic blood pressure”.
